Several values for one entry are separate records, joined by “and”; a condition that tells them apart may be missing. Identical values can stand only once.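 Assay format: 96-well plates, 48-hour exposure. The concentration for 50% growth inhibition is given as GI50. At the TGI there is no net growth.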
Experiments:
Assay in all cases: DTP human tumour cell line panel, 48 h; in the data active = GI50 below about 0.43 µM; inactive = the rest
[1] = system: 786-0 renal
[2] = system: A498 renal
[3] = system: A549 NSCLC
[4] = system: ACHN renal
[5] = system: BT-549 breast
[6] = system: CAKI-1 renal
[7] = system: CCRF-CEM leukemia
[8] = system: COLO 205 colon
[9] = system: DU-145 prostate
[10] = system: EKVX NSCLC
[11] = system: HCC-2998 colon
[12] = system: HCT-116 colon
[13] = system: HCT-15 colon
[14] = system: HL-60(TB) leukemia
[15] = system: HOP-62 NSCLC
[16] = system: HS 578T breast
[17] = system: HT29 colon
[18] = system: IGROV1 ovarian
[19] = system: K-562 leukemia
[20] = system: KM12 colon
[21] = system: LOX IMVI melanoma
[22] = system: M14 melanoma
[23] = system: MALME-3M melanoma
[24] = system: MCF7 breast
[25] = system: MDA-MB-231 breast
[26] = system: MDA-MB-435
[27] = system: MDA-N
[28] = system: MOLT-4 leukemia
[29] = system: NCI-H226 lung
[30] = system: NCI-H23 lung
[31] = system: NCI-H460 lung
[32] = system: NCI-H522 lung
[33] = system: NCI/ADR-RES ovarian
[34] = system: OVCAR-3 ovarian
[35] = system: OVCAR-4 ovarian
[36] = system: OVCAR-5 ovarian
[37] = system: OVCAR-8 ovarian
[38] = system: PC-3 prostate
[39] = system: RPMI-8226 leukemia
[40] = system: RXF 393 renal
[41] = system: SF-268 CNS
[42] = system: SF-295 CNS
[43] = system: SK-MEL-2 melanoma
[44] = system: SK-MEL-28 melanoma
[45] = system: SK-MEL-5 melanoma
[46] = system: SK-OV-3 ovarian
[47] = system: SN12C renal
[48] = system: SNB-19 CNS
[49] = system: SNB-75 CNS
[50] = system: SR leukemia
[51] = system: SW-620 colon
[52] = system: T-47D breast
[53] = system: TK-10 renal
[54] = system: U251 CNS
[55] = system: UACC-257 melanoma
[56] = system: UACC-62 melanoma
[57] = system: UO-31 renal
[58] = system: HOP-92 NSCLC
[59] = system: SF-539 CNS

CCOC(=O)/C=C(/C=C\COC1CCCCO1)c1ccccc1 (stereo not given)
> 100 µM: TGI [2] | TGI [3] | TGI [4] | TGI [5] | TGI [6] | TGI [7] | TGI [8] | TGI [9] | TGI [10] | TGI [11] | TGI [13] | TGI [15] | TGI [16] | TGI [18] | TGI [19] | TGI [22] | TGI [23] | TGI [24] | TGI [25] | TGI [26] | TGI [27] | TGI [29] | TGI [30] | TGI [31] | TGI [35] | TGI [36] | TGI [38] | TGI [39] | TGI [41] | TGI [43] | TGI [45] | TGI [46] | TGI [48] | TGI [53] | TGI [55] | TGI [57]
80.8 µM: TGI [34]
80.4 µM: TGI [51]
76.1 µM: TGI [42]
80.3 µM: TGI [28]
53.8 µM: TGI [50]
85.7 µM: TGI [44]
69.7 µM: TGI [49]
49.5 µM: TGI [47]
29.2 µM: TGI [17]
55.3 µM: TGI [40]
88.6 µM: TGI [56]
79.3 µM: TGI [20]
59.9 µM: TGI [37]
30.9 µM: TGI [21]
96 µM: TGI [54]
72.3 µM: TGI [52]
95.7 µM: TGI [33]
83.5 µM: TGI [32]
29.5 µM: TGI [12]
62.7 µM: TGI [1]
44.2 µM: TGI [14]

COc1ccc(C2Oc3c(OC)cc(CCCO)cc3C2CO)cc1OC (stereo not given)
> 100 µM and 31.1 µM: TGI [45]
> 100 µM: TGI [1] | TGI [3] | TGI [4] | TGI [5] | TGI [7] | TGI [8] | TGI [9] | TGI [10] | TGI [11] | TGI [12] | TGI [13] | TGI [14] | TGI [15] | TGI [58] | TGI [16] | TGI [17] | TGI [18] | TGI [19] | TGI [20] | TGI [21] | TGI [22] | TGI [23] | TGI [24] | TGI [25] | TGI [26] | TGI [27] | TGI [29] | TGI [30] | TGI [31] | TGI [32] | TGI [33] | TGI [34] | TGI [35] | TGI [36] | TGI [37] | TGI [38] | TGI [40] | TGI [41] | TGI [42] | TGI [59] | TGI [43] | TGI [44] | TGI [46] | TGI [47] | TGI [48] | TGI [49] | TGI [51] | TGI [52] | TGI [53] | TGI [54] | TGI [55] | TGI [56] | TGI [57]
96.7 µM and > 100 µM: TGI [28]
88 µM and > 100 µM: TGI [2]
inactive: GI50 [2] 26.1 µM and 73.4 µM | GI50 [7] 37.9 µM and > 100 µM | GI50 [21] > 100 µM and 17 µM | GI50 [45] 36 µM and 12 µM | GI50 [50] 13.4 µM and > 100 µM | GI50 [55] 49.9 µM and 21.9 µM | GI50 [57] 38.9 µM and > 100 µM
55.5 µM and > 100 µM: TGI [50]
60.4 µM and > 100 µM: TGI [39]

O=P(OCc1ccccc1)(OCc1ccccc1)C(O)/C=C/c1ccccc1 (stereo not given)
34.6 µM: TGI [45]
43.8 µM: TGI [43]
39.8 µM: TGI [12]
57.7 µM: TGI [32]
71.3 µM: TGI [48]
48.1 µM: TGI [28]
50.7 µM: TGI [50]
37 µM: TGI [22]
39 µM: TGI [47]
36 µM: TGI [27]
43.1 µM: TGI [20]
39.5 µM: TGI [1]
44.6 µM: TGI [30]
82.8 µM: TGI [39]
55.9 µM: TGI [37]
45.4 µM: TGI [17]
56.1 µM: TGI [35]
31.5 µM: TGI [21]
56.4 µM: TGI [25]
31.4 µM: TGI [56]
49.2 µM: TGI [18]
> 100 µM: TGI [3] | TGI [9] | TGI [13] | TGI [19] | TGI [24] | TGI [36] | TGI [38] | TGI [40] | TGI [44] | TGI [46]
57.2 µM: TGI [58]
68.3 µM: TGI [51]
35.2 µM: TGI [2]
38.6 µM: TGI [55]
44.9 µM: TGI [8]
45.1 µM: TGI [16]
95.9 µM: TGI [4]
44.3 µM: TGI [14]
42.8 µM: TGI [41]
49.4 µM: TGI [42]
27.4 µM: TGI [54]
80.3 µM: TGI [57]
95.6 µM: TGI [10]
88.3 µM: TGI [52]
71.2 µM: TGI [5]
55.5 µM: TGI [15]
62.9 µM: TGI [33]
98.7 µM: TGI [6]
78.3 µM: TGI [29]
35.1 µM: TGI [26]
38.2 µM: TGI [23]
43.6 µM: TGI [34]

Cn1c2c(c3ccccc31)CCN1C(=O)C34CCCC3CC21S4 (stereo not given)
> 100 µM: TGI [1] | TGI [2] | TGI [3] | TGI [4] | TGI [5] | TGI [6] | TGI [8] | TGI [9] | TGI [10] | TGI [12] | TGI [13] | TGI [14] | TGI [15] | TGI [58] | TGI [16] | TGI [17] | TGI [18] | TGI [19] | TGI [20] | TGI [21] | TGI [22] | TGI [23] | TGI [24] | TGI [25] | TGI [26] | TGI [27] | TGI [28] | TGI [29] | TGI [30] | TGI [32] | TGI [33] | TGI [34] | TGI [35] | TGI [36] | TGI [37] | TGI [38] | TGI [39] | TGI [40] | TGI [41] | TGI [42] | TGI [59] | TGI [43] | TGI [44] | TGI [45] | TGI [46] | TGI [47] | TGI [48] | TGI [50] | TGI [51] | TGI [52] | TGI [53] | TGI [54] | TGI [55] | TGI [56] | TGI [57]

— PubChem BioAssay (NCI)
